Test results from patent US8084502B2, “Use of agmatine for protection of retinal ganglion cells” (priority 2007, dated 2011).

How the values were obtained:
Format in all cases: cell-based, rat
caspase-3 = assay: Caspase-3 activity (colorimetric, Ac-DEVD-pNA cleavage) after hypoxia; details: hypoxia 24 hours; 100 μM of agmatine or 50 μM of Z-VAD-FMK
Experimental: The RGC-5 cell line, which is a RGC line developed from post-natal Sprague-Dawley rats, was grown in modified Dulbecco's Modified Eagle's Medium (DMEM; Gibco) supplemented with 10% of heat inactivated fetal bovine serum (Gibco) and 100 U/mL of penicillin and 100 μg/mL of streptomycin (Gibco). The cells were passaged every 2 to 3 days, and the cultures incubated at 37° C. in 5% of CO2 and air. […] For all experiments, cells were used at an 80% confluence. Cultures were transferred into a closed hypoxic chamber (Form a Scientific Co.) in which oxygen level (5% of O2, 5% of CO2, 90% of N2) and temperature (37° C.) were controlled. After washing twice with deoxygenated serum-free DMEM, cells were maintained in the hypoxic chamber. Control cells were not exposed to hypoxia. Agmatine or BDNF were added to the culture medium at the start of injury as indicated. Caspase-3 activity was measured using the CaspACE™ colorimetric assay system (Promega, Cat no. G7220) according to the manufacturer's instructions. Briefly, cells were harvested and resuspended in cell lysis buffer (10^8 cells/mL). […] After incubating at 37° C. for 4 hours, absorbance was measured using a microplate reader at 405 nm. Absorbance of each sample was determined by subtraction of the mean absorbance of the blank from that of each sample.

[1] = tested on: Total MAPKs (JNK, ERK, and p38); assay: Western blot, total MAPKs in hypoxic RGC-5
Experimental: The RGC-5 cell line, which is a RGC line developed from post-natal Sprague-Dawley rats, was grown in modified Dulbecco's Modified Eagle's Medium (DMEM; Gibco) supplemented with 10% of heat inactivated fetal bovine serum (Gibco) and 100 U/mL of penicillin and 100 μg/mL of streptomycin (Gibco). The cells were passaged every 2 to 3 days, and the cultures incubated at 37° C. in 5% of CO2 and air. […] For all experiments, cells were used at an 80% confluence. Cultures were transferred into a closed hypoxic chamber (Form a Scientific Co.) in which oxygen level (5% of O2, 5% of CO2, 90% of N2) and temperature (37° C.) were controlled. […] The protein concentrations in the resultant supernatants were measured with the Bradford reagent, and equal amounts of protein (40 μg) were boiled in Laemmli sample buffer, followed by being resolved by 10 or 15% SDS-PAGE. The proteins were transferred to polyvinylidene fluoride membranes (Immobilon; Millipore, Billerica, Mass.) and then probed overnight with antibodies against JNK, ERK p44/42, p38, NF-κB p65, phospho-JNK, phospho-ERK p44/42, phospho-p38, phospho-NF-κB, (3-actin and histone 3 as indicated (diluted 1:1000). The immunoreactive bands were detected with horseradish peroxidase-conjugated secondary antibodies and visualized by enhanced chemiluminescence.

NF-κB = assay: Western blot, NF-κB in nuclear and cytosolic fraction of hypoxic RGC-5; details: for increase in phospho-NF-κB, nuclear fraction / increase in total NF-κB expression, cytoplasmic fraction: hypoxia 1 hour; for total NF-κB and histone 3, nuclear fraction: hypoxic RGC-5
Experimental: The RGC-5 cell line, which is a RGC line developed from post-natal Sprague-Dawley rats, was grown in modified Dulbecco's Modified Eagle's Medium (DMEM; Gibco) supplemented with 10% of heat inactivated fetal bovine serum (Gibco) and 100 U/mL of penicillin and 100 μg/mL of streptomycin (Gibco). The cells were passaged every 2 to 3 days, and the cultures incubated at 37° C. in 5% of CO2 and air. […] For all experiments, cells were used at an 80% confluence. Cultures were transferred into a closed hypoxic chamber (Form a Scientific Co.) in which oxygen level (5% of O2, 5% of CO2, 90% of N2) and temperature (37° C.) were controlled. After washing twice with deoxygenated serum-free DMEM, cells were maintained in the hypoxic chamber. Control cells were not exposed to hypoxia. Agmatine or BDNF were added to the culture medium at the start of injury as indicated. For fraction of cytosolic and nuclear proteins, cells were lysed with lysis buffer A (10 mM of HEPES (pH 7.4), 10 mM of KCl, 0.1 mM of EDTA, 0.1 mM of EGTA, 1 mM of DTT, 10 mM of Na3VO4, 50 mM of NaF, 1 mM of PMSF, 1 μg/mL of aprotinin, 1 μg/mL of leupeptin, 1 μg/mL of pepstatin) on ice for 15 minutes, and 10% of NP-40 was then added thereto. After vortexing for 10 seconds, lysates were centrifuged at 15,000 g at 4° C. for 1 minute. The supernatent was collected from the cytosolic fraction. The pellet was resuspended in lysis buffer C (20 mM of HEPES (pH 7.4), 400 mM of NaCl, 1 mM of EDTA, 1% of glycerol, 1 mM of DTT, 10 mM of Na3VO4, 50 mM of NaF, 1 mM of PMSF, 1 μg/mL of aprotinin, 1 μg/mL of leupeptin, 1 μg/mL of pepstatin) on ice for 30 minutes. Lysates were centrifuge at 15,000 g at 4° C. for 15 minutes. The supernatent was collected from the nuclear fraction. The protein concentrations in the resultant supernatants were measured with the Bradford reagent, and equal amounts of protein (40 μg) were boiled in Laemmli sample buffer, followed by being resolved by 10 or 15% SDS-PAGE. The proteins were transferred to polyvinylidene fluoride membranes (Immobilon; Millipore, Billerica, Mass.) and then probed overnight with antibodies against JNK, ERK p44/42, p38, NF-κB p65, phospho-JNK, phospho-ERK p44/42, phospho-p38, phospho-NF-κB, (3-actin and histone 3 as indicated (diluted 1:1000). The immunoreactive bands were detected with horseradish peroxidase-conjugated secondary antibodies and visualized by enhanced chemiluminescence.

Compound	hypoxia-induced caspase-3 activity (caspase-3)	Total MAPKs (JNK, ERK, and p38) and β-actin [1]	increase in phospho-NF-κB, nuclear fraction (NF-κB)	increase in total NF-κB expression, cytoplasmic fraction (NF-κB)	total NF-κB and histone 3, nuclear fraction (NF-κB)
N=C(N)NCCCCN [agmatine]	equally suppressed	no significant changes	suppressed	inhibited	no significant changes
BDNF: recombinant human BDNF (R&D System), well-known protective neurotrophin for RGCs, used as comparator	–	no significant changes	not	not	no significant changes
